Test results taken from US20040235890A1, “Remedies for allergic diseases” (priority 2001, published 2004).
“Also recorded” adds a separate entry of the source. Structures can show the parent of a compound that is named as a salt.

Experiments:
[1] = tested on: NOS; conditions: cited from earlier work
[2] = tested on: Allergic rhinitis model; test: Allergic rhinitis model (ovalbumin-sensitised guinea pig, pituita weight); format: in vivo; conditions: 0.01%, 0.1% and 1.0% solution, 40 uL nasally into both sides, 10 min before 1% ovalbumin; male Crj Hartley guinea pig; monohydrochloride salt
Description: Allergic rhinitis model was produced by administration of ovalbumin to male Crj Hartley guinea pig (6 weeks old) in the procedure shown in table 1.
At day 42, guinea pigs were inserted with tube into the trachea under anesthesia and kept the heat using heat pat. Forty micro liter of (+)-trans-3-imino-5-methyl-7-chloro-2-azabicyclo[4.1.0]heptane monohydrochloride salt (referred to as “compound A”) or physiological saline was administered nasally into both sides. Ten minutes later, 40 uL of 1% ovalbumin was administered nasally into both sides. Thirty minutes after ovalbumin administration, moisture in the nose was removed with absorbent cotton. Fifteen minutes later, absorbent cotton of which weight was measured was inserted into nose for 15 minutes. Pituita weight was calculated by the difference in weight between pre and post insertion.

COC(=O)[C@@H](N)CCCNC(=N)N[N+](=O)[O-] [L-NAME, N-ω-nitro-L-arginine methylester]
increase in NO production and vascular permeability in allergic conjunctivitis ([1]; Cornea, 19(1), 84-91 (2000)): suppressed | prostaglandin E2 production in acute phase of allergic conjunctivitis ([1]; Prostaglandins, 52(6), 431-446 (1996)): suppresses prostaglandin E2 production | effect on allergic conjunctivitis ([1]; in vivo): the action is weak

C[C@H]1CC(=N)N[C@@H]2[C@H](Cl)[C@@H]21 (relative stereo) [compound A, (+)-trans-3-imino-5-methyl-7-chloro-2-azabicyclo[4.1.0]heptane monohydrochloride salt]
Pituita weight (suppression as compared to control, physiological saline) [2]: suppresses pituita weight in dose dependent manner; also recorded: noticeably suppresses pituita weights
